Assay results from US20070042962A1, “Peptide dependent upregulation of telomerase expression” (priority 2002, published 2007).
Ends that are not written are not given here.

What was measured:
telomerase [1] = test: TRAP telomerase assay in primary cortical rat brain cell cultures; type: cell-based; settings: for upregulation of expression of telomerase (TRAP): primary rat brain cortical cultures, 1-70 μg/ml
Description: (§1) Telomerase activity was measured in total cellular lysates using a telomeric repeat amplification protocol (TRAP). DNA oligomer “TS” 18-mer (AATCCGTCGAGCAGAGTT) (SEQ ID NO:30) was end-labeled with P^32 in a 20 μl reaction containing 50 mM Tris-HCl (pH 7.5), 10 mM MgCl2, 0.1 mM EDTA, 1 mM DTT, 1 pmol TS primer, 1 pmol [γ-^32P]-ATP (4,500 Ci/mmol), and 5 U polynucleotide kinase (Ambion). The reaction was incubated for 20 minutes at 37° C., and then stopped by incubating for 5 minutes at 85° C. Labeled TS oligomer was stored at −20° C. until use.
(§2) Telomerase-induced hexamer extensions to the TS primer were performed in a 50 μl reaction volume containing 20 mM Tris-HCl (pH 8.3), 1.5 mM MgCl2, 63 mM KCl, 0.05% Tween-20, 1 mM EGTA, 50 μM dNTPs, 0.1 pmol ^32P-labeled TS primer, 1 pmol reverse primer RP (CTAACCCTAACCCTAACC) (SEQ ID NO:31), 1.0 μg cell lysate, and 2 U Taq polymerase (Ambion). The reaction was incubated for 30 minutes at 30° C. Hexamer extensions were then amplified by PCR using the following program: denaturation at 94° C. for 30 seconds, annealing at 59° C. for 30 seconds, 27 cycles denaturation/annealing. Radiolabeled ladders were separated by electrophoresis on 10% polyacrylamide gels, dried onto 3 MM paper, and visualized by autoradiography with Kodak X-Omat AR film. Exposure times averaged 4 hours at 25° C. Ladders were quantitated by excision from the gel, and counting in a Bench Count (Beckman).
The ability of representative peptide compounds described herein to upregulate telomerase was also tested in primary cortical cultures of rat brain using the TRAP telomerase assay described above.
[…] […] Negative control cultures were not exposed to a peptide compound during the growth period.
In this case, the P^32-labeled DNA precursors were incorporated into the series of hexamer base pairs showing the upregulation of the telomerase. The total radioactivity corresponding to base pairs ladders from 50 to 80 bp was measured by counting the particular region of the gel. […] The highest concentrations of peptide compound tested produced increasingly less upregulation of the enzyme, as is typically observed at some point along most dose response curves.

[2] = test system: glutathione peroxidase (GPX); settings: rat brain cells; same nanogram amounts (1 ng/ml, 24 h); data not shown
Description: (§3) Primary cortical rat brain cell cultures were prepared as described above in Example 4 except that cells were cultured following a 24-hour exposure to 0 or 1 nanograms (ng)/ml of CMX-4. […] Positive control (“Pos”) represents the analysis of 1 μg of protein from a total cell lysate of immortalized HeLa cells.
(§4) In addition, the levels of antioxidative enzymes superoxide dismutase (SOD), catalase (CAT), and glutathione peroxidase (GPX) were determined using a standard immunoblotting protocol (see, Adams et al., J. Cell. Biochem., 77: 221-233 (2000)).

[3] = test system: superoxide dismutase (SOD); settings: rat brain cells; same nanogram amounts (1 ng/ml, 24 h); data not shown
Description: as §3, §4

catalase (CAT) = test: Immunoblotting of catalase in primary cortical rat brain cell cultures; type: cell-based; settings: same nanogram amounts (1 ng/ml, 24 h), data not shown
telomerase [4] = test: TRAP telomerase assay in mouse neuroblastoma cells (NB2a/DL); type: cell-based; settings: CMX-1 100 μg/ml or CMX-3 70 μg/ml, 6 and 24 hours
Description: Telomerase activity was assayed in human cells and tumors by telomeric repeat amplification protocol (TRAP) (see, Piatsyzek, Methods in Cell Science, 17:1 (1995)). Whole cell lysates were prepared from approximately 10^6 Nb2a cells. Cells were washed once with PBS, repelleted, and 20 μl of lysate buffer (10 mM Tris-HCl pH 7.5, 1 mM MgCl2, 1 mM EGTA, 0.1 mM benzamidine, 5 mM β-mercaptoethanol, 0.5% CHAPS, 10% glycerol) was added directly to the washed pellets. The suspensions were incubated on ice for 30 minutes to allow cell swelling and lysis. Lysates were cleared by centrifugation at 12,000×g for 20 minutes at 4° C. Total protein concentration was determined for the cleared supernatant using a Coomassie Reagent protocol (Pierce). Supernatants were stored at −70° C.
Telomerase activity was measured in total cellular lysates using a telomeric repeat amplification protocol (TRAP). […]
Telomerase-induced hexamer extensions to the TS primer were performed in a 50 μl reaction volume containing 20 mM Tris-HCl (pH 8.3), 1.5 mM MgCl2, 63 mM KCl, 0.05% Tween-20, 1 mM EGTA, 50 μM dNTPs, 0.1 pmol ^32P-labeled TS primer, 1 pmol reverse primer RP (CTAACCCTAACCCTAACC) (SEQ ID NO:31), 1.0 μg cell lysate, and 2 U Taq polymerase (Ambion). […] Ladders were quantitated by excision from the gel, and counting in a Bench Count (Beckman). […]

telomerase [5] = test: TRAP telomerase assay of tissue homogenates from old mice orally treated for 30 days; type: in vivo, mouse
Description: as §1, §2
The ability of peptide compounds described herein to upregulate telomerase in old and young mice was also studied. Here, the old mice (17 months old) were treated daily by gavage for 30 days with an oral dose of peptide CMX-2 in saline at doses of 0, 0.03, 0.3, and 3.3 mg of peptide compound per kilogram (kg) of body weight. Control animals received saline only without peptide compound. Animals were sacrificed by decapitation after 30 days and dissected to isolate the brain, heart, and liver, which was frozen at −70° C. for subsequent analysis. […]
Telomerase activity was then measured in the cytoplasmic protein fraction of tissue homogenates.

Substance: R1 Asp Gly, wherein R1 is the iodine-substituted thyronine amino terminal capping group, 3,5,3′-triiodothyronine [CMX-4]
- upregulation of telomerase (TRAP) (telomerase [1]; primary cortical rat brain cells, 1 ng/ml, 24-hour exposure): effective at upregulating telomerase
- upregulation of glutathione peroxidase (GPX) compared to untreated control cells [2]: upregulated
- upregulation of superoxide dismutase (SOD) compared to untreated control cells [3]: upregulated
- upregulation of catalase (CAT) compared to untreated control cells (catalase (CAT)): upregulated

Substance: Asp Gly [CMX-3]
- upregulation of telomerase over control levels (TRAP) (telomerase [4]): upregulated
- upregulation of expression of telomerase (TRAP) (telomerase [1]): upregulated
- upregulation of telomerase over control at dose of maximum effect (telomerase [1]; primary rat cortical cultures, 1 μg/ml (maximum effect)): 2 fold

Substance: [Ac] Asp Gly Glu Ala (Ac-DGEA; listed as Homo sapiens) [CMX-2]
- telomerase activity of brain tissue homogenates relative to untreated controls (telomerase [5]; 3.3 mg/kg body weight orally by gavage daily for 30 days, brain): 3.2 fold
- upregulation of telomerase in brain tissue (telomerase [5]; oral daily for 30 days, brain): upregulated
- upregulation of telomerase in heart tissue (telomerase [5]; oral daily for 30 days, heart): upregulated

Substance: DGDGDFAIDAPE [CMX-1]
- upregulation of telomerase over control levels (TRAP) (telomerase [4]): upregulated
- upregulation of expression of telomerase (TRAP) (telomerase [1]): upregulated
- increase in the level of telomerase expression relative to control levels (telomerase [1]; primary rat cortical cultures, 10 μg/ml): greater than 4 fold
- shape of dose-response curve of telomerase upregulation (telomerase [1]; primary rat cortical cultures, 1, 10, 70 μg/ml): inverted U-shape
